Results from article PMC3661904 (Neuropharmacology, 2012).

What was measured:
Experiment in all cases: aequorin intracellular calcium assay, inhibition of ACh response
Type in all cases: cell-based
[1] = molecular target: human α3β4 nicotinic acetylcholine receptor (α3β4 nAChR) (Homo sapiens, UniProt P30926+P32297)
[2] = molecular target: human α3β4α5D nAChR (D398 variant of α5; α3β4α5N carries N398) (Homo sapiens, UniProt P30532+P30926+P32297)
[3] = molecular target: human α3β4α5D nAChR (D398 variant of α5; α3β4α5N carries N398) (Homo sapiens, UniProt P30532+P30926+P32297, P30532:D398N)
Sequence of human α3β4α5D nAChR (D398 variant of α5; α3β4α5N carries N398) (Homo sapiens, UniProt P30532+P30926+P32297, P30532:D398N) (P32297 32-505): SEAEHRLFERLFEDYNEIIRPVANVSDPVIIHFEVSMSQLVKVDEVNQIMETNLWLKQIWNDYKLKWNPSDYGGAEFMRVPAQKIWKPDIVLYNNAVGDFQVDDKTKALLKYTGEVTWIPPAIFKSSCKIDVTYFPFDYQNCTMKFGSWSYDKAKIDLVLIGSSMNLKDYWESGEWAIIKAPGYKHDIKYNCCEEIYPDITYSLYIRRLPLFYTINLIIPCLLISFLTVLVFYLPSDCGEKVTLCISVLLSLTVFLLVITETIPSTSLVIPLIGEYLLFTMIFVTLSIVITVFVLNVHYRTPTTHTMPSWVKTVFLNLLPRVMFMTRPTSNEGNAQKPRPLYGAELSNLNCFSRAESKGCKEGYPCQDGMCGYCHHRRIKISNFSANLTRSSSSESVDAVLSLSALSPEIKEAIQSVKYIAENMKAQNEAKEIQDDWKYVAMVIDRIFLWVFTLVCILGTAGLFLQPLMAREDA
Sequence of human α3β4α5D nAChR (D398 variant of α5; α3β4α5N carries N398) (Homo sapiens, UniProt P30532+P30926+P32297, P30532:D398N) (P30926 22-498): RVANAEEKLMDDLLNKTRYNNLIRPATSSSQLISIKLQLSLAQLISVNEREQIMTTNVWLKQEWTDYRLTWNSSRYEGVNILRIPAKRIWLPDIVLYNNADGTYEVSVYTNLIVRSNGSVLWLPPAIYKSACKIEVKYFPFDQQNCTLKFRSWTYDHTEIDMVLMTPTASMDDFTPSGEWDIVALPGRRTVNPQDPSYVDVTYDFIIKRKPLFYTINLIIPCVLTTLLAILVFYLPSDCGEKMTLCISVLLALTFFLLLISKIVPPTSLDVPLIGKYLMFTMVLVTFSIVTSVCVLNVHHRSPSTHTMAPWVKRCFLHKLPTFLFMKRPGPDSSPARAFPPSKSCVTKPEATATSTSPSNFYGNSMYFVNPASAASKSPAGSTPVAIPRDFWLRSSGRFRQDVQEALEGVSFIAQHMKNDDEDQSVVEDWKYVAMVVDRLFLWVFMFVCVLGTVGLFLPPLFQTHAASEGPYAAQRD
Sequence of human α3β4α5D nAChR (D398 variant of α5; α3β4α5N carries N398) (Homo sapiens, UniProt P30532+P30926+P32297, P30532:D398N) (P30532 23-468 D398N): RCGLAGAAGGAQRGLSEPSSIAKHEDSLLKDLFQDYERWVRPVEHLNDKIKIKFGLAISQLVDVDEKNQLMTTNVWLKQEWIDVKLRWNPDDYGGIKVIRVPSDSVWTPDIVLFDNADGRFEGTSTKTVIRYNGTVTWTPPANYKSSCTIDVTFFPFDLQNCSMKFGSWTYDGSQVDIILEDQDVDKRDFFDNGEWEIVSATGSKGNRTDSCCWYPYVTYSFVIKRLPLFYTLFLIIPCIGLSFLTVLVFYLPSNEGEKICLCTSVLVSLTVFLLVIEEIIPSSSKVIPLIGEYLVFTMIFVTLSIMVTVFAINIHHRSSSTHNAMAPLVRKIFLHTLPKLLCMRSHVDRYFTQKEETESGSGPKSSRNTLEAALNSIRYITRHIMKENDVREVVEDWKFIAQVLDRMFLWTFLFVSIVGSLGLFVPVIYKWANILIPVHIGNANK

Sequence of human α3β4 nicotinic acetylcholine receptor (α3β4 nAChR) (P32297 32-505): as the sequence (P32297 32-505) above
Sequence of human α3β4 nicotinic acetylcholine receptor (α3β4 nAChR) (P30926 22-498): as the sequence (P30926 22-498) above

SMILES	IC50 [1] [nM]	IC50 [2] [nM]	IC50 [3] [nM]
CCCCCCC(=O)OC1CC(C)(C)NC(C)(C)C1 [TMPH, 2,2,6,6-tetramethylpiperidin-4-yl heptanoate]	830 ± 100	360 ± 20	450 ± 40
COc1cc2c3cc1Oc1cc(ccc1O)C[C@@H]1c4c(cc(OC)c(O)c4Oc4ccc(cc4)C[C@@H]3N(C)CC2)CC[N+]1(C)C [D-Tubocurarine]	1010 ± 240	940 ± 210	640 ± 150
